“Also recorded” adds a separate entry of the source. Where two headings read alike, the source gives them in different places.
What was measured:
HEK[STIM1] cells = experiment: STIM1-dependent Ca2+ entry in STIM1-overexpressing cells; assay type: cell-based, human
Experimental: (§1) To test whether the Ca^2+ entry pathway activated by STIM1 overexpression is pharmacologically similar to endogenous SOCE, HEK[STIM1] cells were pre-incubated with increasing doses of 2-APB and STIM1-dependent Ca^2+ entry was measured.

HEK-Zeo control cells = conditions: read-out: IC50 for inhibition of calcium entry, HEK-Zeo control cells; thapsigargin-mediated store depletion, readdition of external calcium
Experimental: as §1

[1] = system: store-operated calcium entry in RBL-2H3 cells; experiment: Fluorescence (FLUO-4/FLIPR384) store-operated calcium entry screening assay; assay type: cell-based, rat; conditions: for inhibition at 10 µM: RBL-2H3; for inhibition at 10 µM / % Inhibition at 10 μM: cell line not stated; for IC50: Up slope parameter, RBL-2H3 cells
Experimental: Fluorescence-based assays were used for screening the compounds described herein, such as compounds of Formula (I) and Formula (II), which modulate intracellular calcium.
RBL-2H3 cells plated in 384-well plates were loaded for 45 min with FLUO-4-AM (2 μM final concentration) in HBSS. Cells were washed and placed in a nominally Ca^2+- and Mg^2+-free Hanks solution. One minute later, a test agent or vehicle was added. After a 15 minute incubation period, 1 μM thapsigargin (Tg) was added to inhibit the ER Ca^2+ pump and discharge intracellular Ca^2+ stores. Fifteen minutes after addition of Tg, store-operated calcium entry was initiated by adding external Ca^2+ to a final concentration of 1.8 mM and the cells monitored for a further 10-15 minutes. Calcium levels were monitored throughout the assay using a FLIPR^384 (Molecular Devices fluorimetric imaging plate reader for high throughput screening).
A similar screening assay procedure was used with HEK293 and RBL-2H3 cells.
The kinetic data from the FLIPR^384 were analyzed and then stored in a relational database (ActivityBase; IDBS). Ten quantitative parameters were calculated that define various aspects of the store-operated calcium entry response. These parameters are as follows:
Up slope: linear regression of the increase in RFU from 2 to 30 sec after addition of Ca^2+.
Combinations of these parameters were used to characterize the compounds of Formula (I). Compounds were retested under identical conditions to confirm their activity. Compounds with confirmed activity were then analyzed for concentration-dependent effects, and subsequently, those compounds displaying concentration-dependent effects were categorized as compounds that modulate intracellular calcium.

hOrail/hSTIM1 [2] = target: T1, hOrail/hSTIM1 (Homo sapiens, UniProt Q96D31); experiment: Recombinant hOrail/hSTIM1-dependent Ca2+ entry in stable cells; assay type: cell-based; conditions: FIG. 14
T1 construct: expressed in transfected cells
T1 sequence (Q96D31 whole entry): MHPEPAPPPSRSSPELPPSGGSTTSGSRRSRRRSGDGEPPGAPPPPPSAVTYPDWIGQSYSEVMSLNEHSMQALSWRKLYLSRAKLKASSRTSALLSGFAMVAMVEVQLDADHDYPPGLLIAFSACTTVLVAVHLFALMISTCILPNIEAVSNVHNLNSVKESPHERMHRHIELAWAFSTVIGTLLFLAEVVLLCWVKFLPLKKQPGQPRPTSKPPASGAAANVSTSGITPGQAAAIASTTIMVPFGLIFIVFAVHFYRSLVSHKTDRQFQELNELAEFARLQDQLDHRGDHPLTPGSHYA
T1 sequence (Q13586 23-685 partner): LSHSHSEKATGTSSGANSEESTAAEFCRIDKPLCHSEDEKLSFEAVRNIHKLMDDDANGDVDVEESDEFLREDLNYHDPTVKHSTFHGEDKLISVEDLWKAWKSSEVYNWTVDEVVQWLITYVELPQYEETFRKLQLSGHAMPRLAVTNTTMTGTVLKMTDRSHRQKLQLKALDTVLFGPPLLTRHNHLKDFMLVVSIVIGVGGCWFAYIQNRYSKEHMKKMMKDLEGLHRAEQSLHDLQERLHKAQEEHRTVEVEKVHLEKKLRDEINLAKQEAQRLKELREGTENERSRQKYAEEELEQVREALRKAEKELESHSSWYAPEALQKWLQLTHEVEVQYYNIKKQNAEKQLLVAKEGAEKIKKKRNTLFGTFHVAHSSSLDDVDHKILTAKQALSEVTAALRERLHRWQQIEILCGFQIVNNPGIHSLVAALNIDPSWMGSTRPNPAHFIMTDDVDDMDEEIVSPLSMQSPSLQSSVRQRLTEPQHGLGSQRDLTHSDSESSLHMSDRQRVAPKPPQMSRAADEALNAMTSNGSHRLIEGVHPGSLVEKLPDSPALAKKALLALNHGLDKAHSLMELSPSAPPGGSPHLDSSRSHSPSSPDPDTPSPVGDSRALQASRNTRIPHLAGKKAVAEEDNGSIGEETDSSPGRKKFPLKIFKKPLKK

hOrail/hSTIM1 [3] = target: T1, hOrail/hSTIM1; experiment: Monster ICRAC in cells stably overexpressing hOrail/hSTIM1; assay type: cell-based; conditions: FIG. 15

| Structure (SMILES) | inhibition at 10 µM ([1]; Rattus norvegicus) [%] | IC50 ([1]; Rattus norvegicus) [µM] | further results |
| --- | --- | --- | --- |
| NCCOB(c1ccccc1)c1ccccc1 [Compound 2-APB, 2-aminoethoxydiphenyl borate] |  |  | effect on STIM1-dependent Ca2+ entry (HEK[STIM1] cells; HEK293 overexpressing STIM1, no Tg store depletion, FIG. 13): biphasic effect; also recorded: both enhances (at low concentrations) and inhibits (at high concentrations); IC50 (HEK[STIM1] cells; HEK[STIM1] cells, entry induced by pretreatment in Ca2+-free buffer, read-out: IC50 for inhibition of Ca2+ entry in the absence of Tg-dependent store depletion): 10.8 µM; IC50 (HEK[STIM1] cells; thapsigargin-mediated store depletion, readdition of external calcium, read-out: IC50 for inhibition of calcium entry, HEK[STIM1] cells): 10.5 µM; IC50 (HEK-Zeo control cells): 11.8 µM |
| Cc1ccc(-c2csc(NC(=O)c3ccc(Cl)cc3)c2C(=O)O)cc1C [Compound 38, 2-(4-chlorobenzamido)-4-(3,4-dimethylphenyl)thiophene-3-carboxylic acid] | < 70 | 3.8 |  |
| O=C(Nc1scc(-c2ccc(C(F)(F)F)cc2)c1C(=O)O)c1ccc(F)cc1 [Compound 4, 2-(4-fluorobenzamido)-4-(4-trifluoromethylphenyl)thiophene-3-carboxylic acid] | > 70 |  |  |
| O=C(Nc1scc(-c2ccc(Cl)c(Cl)c2)c1C(=O)O)c1ccc(F)cc1 [Compound 3, 2-(4-fluorobenzamido)-4-(3,4-dichlorophenyl)thiophene-3-carboxylic acid] | > 70 | 3.3 |  |
| O=C(Nc1scc(-c2cccc(Cl)c2)c1C(=O)O)c1cc2ccccc2s1 [Compound 46, 2-(benzothien-2-ylamido)-4-(3-chlorophenyl)thiophene-3-carboxylic acid] |  |  | % Inhibition at 10 μM [1]: >70%; IC50 [1]: 10.7 µM |
| O=C(Nc1scc(-c2ccc(Cl)cc2Cl)c1C(=O)O)c1cccc(F)c1 [Compound 26, 2-(3-fluorobenzamido)-4-(2,4-dichlorophenyl)thiophene-3-carboxylic acid] | > 70 | 2.1 |  |
| O=C(Nc1scc(-c2cccc(Cl)c2)c1C(=O)O)c1ccc(Br)cc1 [Compound 20, 2-(4-bromobenzamido)-4-(3-chlorophenyl)thiophene-3-carboxylic acid] | < 70 | 4 |  |
| O=C(Nc1scc(-c2ccc(F)cc2)c1C(=O)O)c1ccc(Cl)cc1 [Compound 36, 2-(4-chlorobenzamido)-4-(4-fluorophenyl)thiophene-3-carboxylic acid] |  | 2.4 |  |
| O=C(Nc1scc(-c2ccc(Cl)cc2)c1C(=O)O)c1cccc(F)c1 [Compound 25, 2-(3-fluorobenzamido)-4-(4-chlorophenyl)thiophene-3-carboxylic acid] |  | 1.3 |  |
| O=C(Nc1scc(-c2ccc(Cl)c(Cl)c2)c1C(=O)O)c1ccc(Cl)cc1 [Compound 37, 2-(4-chlorobenzamido)-4-(3,4-dichlorophenyl)thiophene-3-carboxylic acid] | < 70 | 3 |  |
| O=C(Nc1scc(-c2ccc(Cl)cc2)c1C(=O)O)c1ccc(Br)cc1 [Compound 17, 2-(4-bromobenzamido)-4-(4-chlorophenyl)thiophene-3-carboxylic acid] | > 70 | 1 |  |
| Cc1cccc(C(=O)Nc2scc(-c3ccc(Cl)cc3)c2C(=O)O)c1 [Compound 50, 2-(3-methylbenzamido)-4-(4-chlorophenyl)thiophene-3-carboxylic acid] |  | 1.2 |  |
| Cc1ccc(-c2csc(NC(=O)c3cccc(C)c3)c2C(=O)O)cc1 [Compound 51, 2-(3-methylbenzamido)-4-(4-methylphenyl)thiophene-3-carboxylic acid] |  | 3 |  |
| Cc1ccc(-c2csc(NC(=O)c3ccc(Cl)cc3)c2C(=O)O)cc1 [Compound 34, 2-(4-chlorobenzamido)-4-(4-methylphenyl)thiophene-3-carboxylic acid] |  | 1 |  |
| O=C(Nc1scc(-c2ccc(Br)cc2)c1C(=O)O)c1ccc(Br)cc1 [Compound 18, 2-(4-bromobenzamido)-4-(4-bromophenyl)thiophene-3-carboxylic acid] | > 70 | 1.3 |  |
| O=C(Nc1scc(-c2ccc(Cl)cc2)c1C(=O)O)c1ccc(Cl)cc1 [Compound 33, 2-(4-chlorobenzamido)-4-(4-chlorophenyl)thiophene-3-carboxylic acid] |  | 1 |  |
| Cc1ccc(-c2csc(NC(=O)c3ccc(Br)cc3)c2C(=O)O)cc1C [Compound 21, 2-(4-bromobenzamido)-4-(3,4-dimethylphenyl)thiophene-3-carboxylic acid] | > 70 | 4.6 |  |
| O=C(Nc1scc(-c2ccc(Br)cc2)c1C(=O)O)c1cc2ccccc2s1 [Compound 14, 2-(benzothien-2-ylamido)-4-(4-bromophenyl)thiophene-3-carboxylic acid] |  |  | % Inhibition at 10 μM [1]: >70%; IC50 [1]: 2.4 µM |
| O=C(Nc1scc(-c2ccc(Cl)cc2)c1C(=O)O)c1ccc(F)cc1 [Compound 2, 2-(4-fluorobenzamido)-4-(4-chlorophenyl)thiophene-3-carboxylic acid] |  | 2.3 | effect on recombinant hOrail/hSTIM1-dependent Ca2+ entry (hOrail/hSTIM1 [2]): inhibition; effect on Monster ICRAC (hOrail/hSTIM1 [3]): inhibit |
| O=C(Nc1scc(-c2ccc(Cl)cc2Cl)c1C(=O)O)c1cc2ccccc2s1 [Compound 45, 2-(benzothien-2-ylamido)-4-(2,4-dichlorophenyl)thiophene-3-carboxylic acid] |  |  | % Inhibition at 10 μM [1]: >70%; IC50 [1]: 2.4 µM |
| O=C(Nc1scc(-c2ccc(Br)cc2)c1C(=O)O)c1cccc(F)c1 [Compound 11, 2-(3-fluorobenzamido)-4-(4-bromophenyl)thiophene-3-carboxylic acid] |  | 0.8 |  |
| Cc1cccc(C(=O)Nc2scc(-c3ccc(Br)cc3)c2C(=O)O)c1 [Compound 15, 2-(3-methylbenzamido)-4-(4-bromophenyl)thiophene-3-carboxylic acid] |  | 2.6 |  |
| O=C(Nc1scc(-c2ccc(Br)cc2)c1C(=O)O)c1ccc(Cl)cc1 [Compound 12, 2-(4-chlorobenzamido)-4-(4-bromophenyl)thiophene-3-carboxylic acid] |  | 1.2 |  |
| Cc1ccc(-c2csc(NC(=O)c3ccc(Br)cc3)c2C(=O)O)cc1 [Compound 16, 2-(4-bromobenzamido)-4-(4-methylphenyl)thiophene-3-carboxylic acid] |  | 0.6 |  |
| O=C(Nc1scc(-c2cc(Cl)cc(Cl)c2)c1C(=O)O)c1ccc(Br)cc1 [Compound 19, 2-(4-bromobenzamido)-4-(3,5-dichlorophenyl)thiophene-3-carboxylic acid] | > 70 | 1.6 |  |
| O=C(Nc1scc(-c2ccc(Cl)cc2Cl)c1C(=O)O)c1ccc(Cl)cc1 [Compound 35, 2-(4-chlorobenzamido)-4-(2,4-dichlorophenyl)thiophene-3-carboxylic acid] | > 70 | 1.6 |  |
| Cc1ccc(-c2csc(NC(=O)c3cc4ccccc4s3)c2C(=O)O)cc1 [Compound 44, 2-(benzothien-2-ylamido)-4-(4-methylphenyl)thiophene-3-carboxylic acid] |  |  | % Inhibition at 10 μM [1]: <70%; IC50 [1]: 1.3 µM |
| O=C(Nc1scc(-c2ccc(Cl)cc2)c1C(=O)O)c1cc2ccccc2s1 [Compound 43, 2-(benzothien-2-ylamido)-4-(4-chlorophenyl)thiophene-3-carboxylic acid] |  |  | % Inhibition at 10 μM [1]: >70%; IC50 [1]: 1 µM |
